# Literature values as cited in US10391176B2, “Composition, its preparation and method of use in treating skin disorders” (priority 2016, dated 2019).
smiles,measurement,setting,value
"COc1cc(C(=O)NS(=O)(=O)c2ccccc2C)ccc1Cc1cn(C)c2ccc(NC(=O)OC3CCCC3)cc12 [Zafirlukast, 4-(5-cyclopentyloxy-carbonylamino-1-methyl-indol-3-ylmethyl)-3-methoxy-N-o-tolylsulfonylbenzamide]",solubility in acetone,acetone,freely soluble
same,solubility in dimethylsulfoxide,dimethylsulfoxide,freely soluble
same,solubility in methanol,methanol,slightly soluble
same,solubility in tetrahydrofuran,tetrahydrofuran,freely soluble
same,solubility in water,water,practically insoluble
